Reference: paper PMC7588595, “Small-molecule active pharmaceutical ingredients of approved cancer therapeutics inhibit human aspartate/asparagine-β-hydroxylase” (Bioorganic & Medicinal Chemistry, 2020)
Read-outs that look alike come from different tables or passages of the source.

Assays:
[1] = target: T1, human AspH (His6-AspH315–758) (Homo sapiens, UniProt Q12797); experiment: SPE-MS AspH inhibition assay (hFX-CP101-119 substrate hydroxylation); type: biochemical; conditions: for inhibition at 20 µM / AspH inhibition at 20 μM: 20 μM fixed inhibitor, relative to DMSO and 2,4-PDCA controls; for Hill coefficient of AspH inhibition curves: dose-response curves of SPE-MS AspH inhibition assay; for remaining activity at 20 µM: 20 μM fixed inhibitor concentration
T1 construct: N-Terminally His6-tagged human AspH315–758 (His6-AspH315–758) was produced in Escherichia coli BL21 (DE3) cells; made in house; host or cells: Escherichia coli BL21 (DE3), pET-28a(+) vector
T1 sequence (Q12797 315-758): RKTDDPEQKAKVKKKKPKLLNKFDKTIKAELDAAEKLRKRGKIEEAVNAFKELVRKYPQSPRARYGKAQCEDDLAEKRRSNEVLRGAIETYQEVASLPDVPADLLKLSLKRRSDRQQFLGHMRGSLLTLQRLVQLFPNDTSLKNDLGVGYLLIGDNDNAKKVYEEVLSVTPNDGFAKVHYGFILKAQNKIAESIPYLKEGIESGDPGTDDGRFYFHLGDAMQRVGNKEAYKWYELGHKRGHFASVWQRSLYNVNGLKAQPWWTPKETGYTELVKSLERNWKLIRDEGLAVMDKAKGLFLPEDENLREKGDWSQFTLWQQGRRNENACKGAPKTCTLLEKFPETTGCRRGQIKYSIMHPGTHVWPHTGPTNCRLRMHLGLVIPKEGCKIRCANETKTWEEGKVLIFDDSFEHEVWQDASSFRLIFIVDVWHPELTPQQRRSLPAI

[2] = target: T2, His6-AspH315–758 (Homo sapiens, UniProt Q12797); experiment: AspH differential scanning fluorimetry (DSF) assay, melting temperature shift; type: binding; conditions: 40 μM inhibitor, 4 μM His6-AspH315–758, with respect to DMSO controls; read-out: Tm-shift (ΔTm) of AspH
T2 construct: A mixture of SYPRO orange (1‰v/v) and His6-AspH315–758 (4 μM) in 50 mM aqueous HEPES buffer; made in house; host or cells: Escherichia coli BL21 (DE3), pET-28a(+) vector
T2 sequence (Q12797 315-758): T1 sequence (Q12797 315-758)
Protocol: A mixture of SYPRO orange (1‰v/v) and His6-AspH315–758 (4 μM) in 50 mM aqueous HEPES buffer (pH 7.5, 150 mM NaCl, 50 μM NiCl2) was carefully pipetted into a 96-well VWR PCR-plate (38 μL per well). An inhibitor solution (0.8 mM in DMSO) or a negative control sample (pure DMSO) was added to each well (2 μL per well, final inhibitor concentration of 40 μM) and the resulting solutions were gently mixed using a pipette. The plate was sealed with optical tape (Bio-Rag, iCycler iQ), centrifuged (5 sec, 1000 rpm) and placed into a C1000Touch Thermal Cycler equipped with a CFX96 Real-Time System (Bio-Rad). The instrument was heated with a rate of 1 °C per cycle (starting at an initial temperature of 25 °C; 70 cycles total). Data were analyzed using Microsoft Excel and GraphPad Prism according to the literature.[107] DSF assays were performed in independent duplicates, each composed of technical duplicates (Supporting Fig. S4).

[3] = system: Bcl-XL; conditions: fluorescence polarisation, 30 nM enzyme concentration; cited from earlier work
[4] = 50 nM His6-AspH315–758, 1 μM hFX-CP101–119, 100 μM LAA, 3 μM 2OG, 2 μM FAS, 50 mM HEPES pH 7.5, 20 °C, read-out: IC50
[5] = 50 nM His6-AspH315–758, 1 μM hFX-CP101–119, 100 μM LAA, 3 μM 2OG, 2 μM FAS, 50 mM HEPES pH 7.5, 20 °C
[6] = read-out: IC50 at 10 μM substrate, 10 μM hFX-CP101–119 and 10 μM 2OG instead of 1 μM hFX-CP101–119 and 3 μM 2OG
[7] = read-out: IC50 at 200 μM 2OG, 200 μM 2OG instead of 3 μM 2OG
[8] = read-out: IC50 at 20 μM Fe(II), 20 μM Fe(II) instead of 2 μM Fe(II)

Row | SMILES | IC50 [1, 4] | inhibition at 20 µM [1, 5] | IC50 [1, 6] | IC50 [1, 7] | ΔTm at 40 µM [2] | IC50 [1, 8] | Hill coefficient of AspH inhibition curves [1] | IC50 ([1]; 50 nM His6-AspH315–758, 1 μM hFX-CP101–119, 100 μM LAA, 3 μM 2OG, 2 μM FAS, 50 mM HEPES pH 7.5, 20 °C, listed as navitoclax, read-out: IC50) | remaining activity at 20 µM [1] | IC50 ([1]; 50 nM His6-AspH315–758, 1 μM hFX-CP101–119, 100 μM LAA, 3 μM 2OG, 2 μM FAS, 50 mM HEPES pH 7.5, 20 °C, listed as venetoclax, read-out: IC50) | Plate 1 (% inhibition) ([1]; AspH-inhibitor screening, 384-well Plate 1) | Plate 1 (% conversion) ([1]; AspH-inhibitor screening, 384-well Plate 1, substrate conversion) | Plate 1-duplicate (% inhibition) ([1]; AspH-inhibitor screening, Plate 1-duplicate) | Plate 1-duplicate (% conversion) ([1]; AspH-inhibitor screening, Plate 1-duplicate, substrate conversion) | selectivity for Bcl-2 over AspH ([1]; Bcl-2 inhibited more efficiently than AspH) | AspH inhibition at 20 μM [1, 5] | IC50 [3]
1 | O=C(O)c1ccnc(C(=O)O)c1 [2,4-PDCA, Pyridine-2,4-dicarboxylic acid, reference compound] | 0.02 ± 0.01 µM | 100 ± 0.6% | 0.02 ± 0.01 µM | 0.1 ± 0.03 µM | 3.2 ± 0.4 °C |  |  |  |  |  |  |  |  |  |  |  | 
2 | Cc1cc2c(C(C)C)c(O)c(O)c(C=O)c2c(O)c1-c1c(C)cc2c(C(C)C)c(O)c(O)c(C=O)c2c1O [(R)-Gossypol, reference compound] | 0.25 ± 0.01 µM | 101 ± 2.3% | 0.33 ± 0.02 µM | 0.25 ± 0.01 µM |  | 0.26 ± 0.03 µM |  |  |  |  |  |  |  |  |  | Complete suppression of AspH activity | ~0.5 µM
3 | CC1(C)CCC(c2ccc(Cl)cc2)=C(CN2CCN(c3ccc(C(=O)NS(=O)(=O)c4ccc(N[C@H](CCN5CCOCC5)CSc5ccccc5)c(S(=O)(=O)C(F)(F)F)c4)cc3)CC2)C1 [Navitoclax, reference compound] | 1.03 ± 0.12 µM | 90.1 ± 0.1% | 1.21 ± 0.04 µM | 1.33 ± 0.17 µM | -2.1 ± 0.3 °C | 0.8 ± 0.42 µM |  | ~1 µM | ~10% |  |  |  |  |  |  |  | 
4 | CC1(C)CCC(CN2CCN(c3ccc(C(=O)NS(=O)(=O)c4ccc(NCC5CCOCC5)c([N+](=O)[O-])c4)c(Oc4cnc5[nH]ccc5c4)c3)CC2)=C(c2ccc(Cl)cc2)C1 [Venetoclax, reference compound] | 1.4 ± 0.14 µM | 97.2 ± 0.2% | 1.57 ± 0.21 µM | 1.52 ± 0.24 µM | 0.7 ± 0.3 °C | 1.29 ± 0.24 µM | < -2.0 |  | ~3% | ~1.4 µM | 97.05% | 4.94% | 97.31% | 3.78% | ~ 1000 fold |  | 

Now from value to compound, other results behind:

Row | IC50 [1, 4] | inhibition at 20 µM [1, 5] | IC50 [1, 6] | IC50 [1, 7] | ΔTm at 40 µM [2] | IC50 [1, 8] | Hill coefficient of AspH inhibition curves [1] | IC50 ([1]; 50 nM His6-AspH315–758, 1 μM hFX-CP101–119, 100 μM LAA, 3 μM 2OG, 2 μM FAS, 50 mM HEPES pH 7.5, 20 °C, listed as navitoclax, read-out: IC50) | remaining activity at 20 µM [1] | IC50 ([1]; 50 nM His6-AspH315–758, 1 μM hFX-CP101–119, 100 μM LAA, 3 μM 2OG, 2 μM FAS, 50 mM HEPES pH 7.5, 20 °C, listed as venetoclax, read-out: IC50) | Plate 1 (% inhibition) ([1]; AspH-inhibitor screening, 384-well Plate 1) | Plate 1 (% conversion) ([1]; AspH-inhibitor screening, 384-well Plate 1, substrate conversion) | Plate 1-duplicate (% inhibition) ([1]; AspH-inhibitor screening, Plate 1-duplicate) | Plate 1-duplicate (% conversion) ([1]; AspH-inhibitor screening, Plate 1-duplicate, substrate conversion) | selectivity for Bcl-2 over AspH ([1]; Bcl-2 inhibited more efficiently than AspH) | SMILES | AspH inhibition at 20 μM [1, 5] | IC50 [3]
5 | 3.38 ± 0.34 µM |  | 2.99 ± 0.35 µM | 4.47 ± 1.32 µM | 1.5 ± 0.1 °C | 2.92 ± 0.88 µM |  |  |  |  |  |  |  |  |  | CN(C)CC[C@H](CSc1ccccc1)Nc1ccc(S(=O)(=O)NC(=O)c2ccc(N3CCN(Cc4ccccc4-c4ccc(Cl)cc4)CC3)cc2)cc1[N+](=O)[O-] [ABT-737, reference compound] |  | 
6 | 7.49 ± 1.26 µM | > 90% | 4.77 ± 0.1 µM | 11.2 ± 4 µM | 0.1 ± 0.2 °C | 3.1 ± 1.44 µM | < -2.0 |  |  |  |  |  |  |  |  | O=C(/C=C/c1cccc(S(=O)(=O)Nc2ccccc2)c1)NO [Belinostat, reference compound] | 97.1 ± 0.2% | 
